Assays:
[1] = test system: RXF 393; experiment: Growth inhibition of human […] cells after 48 hrs by sulforhodamine B protein assay; format: functional; conditions: RXF 393, 48 h
[2] = test system: OVCAR-3; experiment: Growth inhibition of human OVCAR-3 cells after 48 hrs by sulforhodamine B protein assay; format: functional; conditions: OVCAR-3, 48 h
[3] = test system: MDA-MB-468; experiment: Growth inhibition of human MDA-MB-468 cells after 48 hrs by sulforhodamine B protein assay; format: functional; conditions: MDA-MB-468, 48 h
[4] = test system: SNB-19; experiment: Growth inhibition of human SNB19 cells after 48 hrs by sulforhodamine B protein assay; format: functional; conditions: SNB-19, 48 h
[5] = test system: MOLT-4; experiment: Growth inhibition of human MOLT4 cells after 48 hrs by sulforhodamine B protein assay; format: functional; conditions: MOLT-4, 48 h
[6] = test system: LOX IMVI; experiment: Growth inhibition of human LOXIMVI cells after 48 hrs by sulforhodamine B protein assay; format: functional
[7] = test system: SW-620; experiment: Growth inhibition of human SW620 cells after 48 hrs by sulforhodamine B protein assay; format: functional; conditions: SW-620, 48 h
[8] = test system: KM12; experiment: Growth inhibition of human KM12 cells after 48 hrs by sulforhodamine B protein assay; format: functional; conditions: KM12, 48 h
[9] = test system: SR; experiment: Growth inhibition of human SR cells after 48 hrs by sulforhodamine B protein assay; format: functional
[10] = test system: NCI-H460; experiment: Growth inhibition of human NCI-H460 cells after 48 hrs by sulforhodamine B protein assay; format: functional; conditions: NCI-H460, 48 h
[11] = test system: HOP-92; experiment: Growth inhibition of human HOP92 cells after 48 hrs by sulforhodamine B protein assay; format: functional; conditions: HOP-92, 48 h
[12] = test system: CCRF-CEM; experiment: Growth inhibition of human CCRF-CEM cells after 48 hrs by sulforhodamine B protein assay; format: functional
[13] = test system: SK-MEL-28; experiment: Growth inhibition of human SK-MEL-28 cells after 48 hrs by sulforhodamine B protein assay; format: functional; conditions: SK-MEL-28, 48 h
[14] = test system: TK-10; experiment: Growth inhibition of human TK10 cells after 48 hrs by sulforhodamine B protein assay; format: functional; conditions: TK-10, 48 h
[15] = test system: HT-29; experiment: Growth inhibition of human HT-29 cells after 48 hrs by sulforhodamine B protein assay; format: functional; conditions: HT-29, 48 h
[16] = test system: M14; experiment: Growth inhibition of human M14 cells after 48 hrs by sulforhodamine B protein assay; format: functional; conditions: M14, 48 h
[17] = test system: A498; experiment: Growth inhibition of human A498 cells after 48 hrs by sulforhodamine B protein assay; format: functional; conditions: A498, 48 h
[18] = test system: HCC 2998; experiment: Growth inhibition of human HCC2998 cells after 48 hrs by sulforhodamine B protein assay; format: functional; conditions: HCC 2998, 48 h
[19] = test system: A549; experiment: Growth inhibition of human A549 cells after 48 hrs by sulforhodamine B protein assay; format: functional; conditions: A549, 48 h
[20] = test system: SF-539; experiment: Growth inhibition of human SF539 cells after 48 hrs by sulforhodamine B protein assay; format: functional; conditions: SF-539, 48 h
[21] = test system: HOP-62; experiment: Growth inhibition of human HOP62 cells after 48 hrs by sulforhodamine B protein assay; format: functional; conditions: HOP-62, 48 h
[22] = test system: ACHN; experiment: Growth inhibition of human ACHN cells after 48 hrs by sulforhodamine B protein assay; format: functional
[23] = test system: SK-MEL-5; experiment: Growth inhibition of human SK-MEL-5 cells after 48 hrs by sulforhodamine B protein assay; format: functional; conditions: SK-MEL-5, 48 h
[24] = test system: T47D; experiment: Growth inhibition of human T47D cells after 48 hrs by sulforhodamine B protein assay; format: functional
[25] = test system: BT-549; experiment: Growth inhibition of human BT549 cells after 48 hrs by sulforhodamine B protein assay; format: functional; conditions: BT-549, 48 h
[26] = test system: UACC-62; experiment: Growth inhibition of human UACC62 cells after 48 hrs by sulforhodamine B protein assay; format: functional; conditions: UACC-62, 48 h
[27] = Growth inhibition of human Hs 578T cells after 48 hrs by sulforhodamine B protein assay; format: functional
[28] = test system: MDA-MB-435; experiment: Growth inhibition of human MDA-MB-435 cells after 48 hrs by sulforhodamine B protein assay; format: functional; conditions: MDA-MB-435, 48 h
[29] = test system: PC-3; experiment: Growth inhibition of human PC3 cells after 48 hrs by sulforhodamine B protein assay; format: functional; conditions: PC-3, 48 h
[30] = test system: DNA; experiment: Binding affinity to calf thymus DNA assessed as change in melting temperature at a compound to DNA molar ratio of 1:5 at pH 7 by thermal denaturation assay; format: nucleic-acid assay; conditions: Bos taurus
[31] = test system: Malme-3M; experiment: Growth inhibition of human MALME-3M cells after 48 hrs by sulforhodamine B protein assay; format: functional
[32] = test system: 786-0; experiment: Growth inhibition of human 786-0 cells after 48 hrs by sulforhodamine B protein assay; format: functional; conditions: 786-0, 48 h
[33] = molecular target: T1, Type II restriction enzyme BamHI (Bacillus amyloliquefaciens) (UniProt P23940); experiment: Inhibition of Bacillus amyloliquefaciens BamH1-mediated pBR322 cleavage after 16 hrs by RED100-restriction endonuclease digestion assay
T1 sequence (whole entry): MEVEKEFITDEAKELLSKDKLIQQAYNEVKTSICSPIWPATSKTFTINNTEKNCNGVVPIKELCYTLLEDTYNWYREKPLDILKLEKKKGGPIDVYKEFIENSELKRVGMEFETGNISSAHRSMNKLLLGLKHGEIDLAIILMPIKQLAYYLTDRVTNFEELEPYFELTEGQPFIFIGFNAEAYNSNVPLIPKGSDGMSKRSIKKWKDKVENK

[34] = test system: CAKI-1; experiment: Growth inhibition of human Caki1 cells after 48 hrs by sulforhodamine B protein assay; format: functional; conditions: CAKI-1, 48 h
[35] = test system: NCI-H522; experiment: Growth inhibition of human NCI-H522 cells after 48 hrs by sulforhodamine B protein assay; format: functional; conditions: NCI-H522, 48 h
[36] = test system: MCF7; experiment: Growth inhibition of human MCF7 cells after 48 hrs by sulforhodamine B protein assay; format: functional; conditions: MCF7, 48 h
[37] = test system: MDA-MB-231; experiment: Growth inhibition of human MDA-MB-231 cells after 48 hrs by sulforhodamine B protein assay; format: functional; conditions: MDA-MB-231, 48 h
[38] = test system: K562; experiment: Growth inhibition of human K562 cells after 48 hrs by sulforhodamine B protein assay; format: functional; conditions: K562, 48 h
[39] = test system: NCI-H23; experiment: Growth inhibition of human NCI-H23 cells after 48 hrs by sulforhodamine B protein assay; format: functional; conditions: NCI-H23, 48 h
[40] = test system: U-251; experiment: Growth inhibition of human U251 cells after 48 hrs by sulforhodamine B protein assay; format: functional; conditions: U-251, 48 h
[41] = test system: HCT-116; experiment: Growth inhibition of human HCT116 cells after 48 hrs by sulforhodamine B protein assay; format: functional; conditions: HCT-116, 48 h
[42] = test system: COLO 205; experiment: Growth inhibition of human COLO205 cells after 48 hrs by sulforhodamine B protein assay; format: functional; conditions: COLO 205, 48 h
[43] = test system: OVCAR-8; experiment: Growth inhibition of human OVCAR8 cells after 48 hrs by sulforhodamine B protein assay; format: functional; conditions: OVCAR-8, 48 h
[44] = test system: SF-268; experiment: Growth inhibition of human SF268 cells after 48 hrs by sulforhodamine B protein assay; format: functional; conditions: SF-268, 48 h
[45] = test system: DU-145; experiment: Growth inhibition of human DU145 cells after 48 hrs by sulforhodamine B protein assay; format: functional; conditions: DU-145, 48 h
[46] = Growth inhibition of human […] cells after 48 hrs by sulforhodamine B protein assay; format: functional
[47] = test system: OVCAR-5; experiment: Growth inhibition of human OVCAR5 cells after 48 hrs by sulforhodamine B protein assay; format: functional; conditions: OVCAR-5, 48 h
[48] = test system: SK-OV-3; experiment: Growth inhibition of human SKOV3 cells after 48 hrs by sulforhodamine B protein assay; format: functional; conditions: SK-OV-3, 48 h
[49] = test system: SN12C; experiment: Growth inhibition of human SN12C cells after 48 hrs by sulforhodamine B protein assay; format: functional
[50] = test system: HL-60(TB); experiment: Growth inhibition of human HL-60(TB) cells after 48 hrs by sulforhodamine B protein assay; format: functional; conditions: HL-60, 48 h
[51] = test system: IGROV-1; experiment: Growth inhibition of human IGROV1 cells after 48 hrs by sulforhodamine B protein assay; format: functional; conditions: IGROV-1, 48 h
[52] = test system: SNB-75; experiment: Growth inhibition of human SNB75 cells after 48 hrs by sulforhodamine B protein assay; format: functional; conditions: SNB-75, 48 h

COc1cc2c(cc1OCCCN1CCN(CCCOc3cc4c(cc3OC)C(=O)N3CC(F)(F)C[C@H]3C=N4)CC1)N=C[C@@H]1CC(F)(F)CN1C2=O
GI50 [1]: 2.14 µM
GI50 [2]: 3.55 µM
GI50 [3]: 1.38 µM
GI50 [4]: 4.08 µM
GI50 [5]: 2.02 µM
GI50 [6]: 1.89 µM
GI50 [7]: 2.61 µM
GI50 [8]: 4.1 µM
GI50 [9]: 0.88 µM
GI50 [10]: 2.6 µM
GI50 [11]: 6.14 µM
GI50 [12]: 0.97 µM
GI50 [13]: 1.86 µM
GI50 [14]: 4.38 µM
GI50 [15]: 3.61 µM
GI50 [16]: 3.25 µM
GI50 [17]: 2.43 µM
GI50 [18]: 5.4 µM
GI50 [19]: 7.32 µM
GI50 [20]: 3.05 µM
GI50 [21]: 3.17 µM
GI50 [22]: 5.64 µM
GI50 [23]: 4.28 µM
GI50 [24]: 3.25 µM
GI50 [25]: 1.95 µM
GI50 [26]: 3.05 µM
GI50 [27]: 2.32 µM
GI50 [28]: 2.94 µM
GI50 [29]: 3.06 µM
ΔTm [30]: 11 °C
GI50 [31]: 2.8 µM
GI50 [32]: 3.17 µM
Activity [33]: Dose-dependent effect
GI50 [34]: 3.31 µM
GI50 [35]: 1.14 µM
GI50 [36]: 2.02 µM
GI50 [37]: 4.29 µM
GI50 [38]: 1.74 µM
GI50 [39]: 4.66 µM
GI50 [40]: 3.36 µM
GI50 [41]: 3.59 µM
GI50 [42]: 3.09 µM
GI50 [43]: 6.3 µM
GI50 [44]: 3.57 µM
GI50 [45]: 3.63 µM
GI50 [46]: 2.2 µM
GI50 [47]: 3.83 µM
GI50 [48]: 8.64 µM
GI50 [49]: 4.05 µM
GI50 [50]: 1.18 µM
GI50 [51]: 1.92 µM
GI50 [52]: 5.52 µM
